Measurements reported in US7727511B2, “Agents for imaging soluble a-beta” (priority 2003, dated 2010).
“Also recorded” adds a separate entry of the source.

What was measured:
[1] = system: beta-amyloid in PDAPP mouse brain sections; test: Histochemical staining on PDAPP transgenic mouse brain sections; assay type: binding
Experimental: 3-month old and 24-month old PDAPP mouse brains were obtained from Eli Lilly (Indianapolis, Ind.). Fresh frozen 30 micron sections of the brains were fixed in 10% formalin. For 49b, or Thioflavin S staining, 1 mM stock solutions of 49b and Thioflavin S were prepared in 50% ethanol. The probes were diluted to 25 μM in 50% ethanol, and then applied onto the PDAPP brain sections. The slides were incubated in a humid chamber at room temperature for 1 hr. The slides were washed three times with PBS and mounting medium (Molecular Probes) was added. The slides were incubated at least 4-6 hours before imaging. For the carbonate pre-treatment of the brain sections, formalin-fixed sections were incubated with 100 μL of carbonate buffer containing 0.025 M sodium chloride and 0.1 M sodium carbonate for 45 mins at 37° C. The slides were washed three times with PBS, then 49b or Thioflavin S were applied on the slides as described above. Microscopic examination and imaging was performed using a Leica wide-field fluorescence microscope using filter cube A for 49b and cube E4 for Thioflavin S. Co-staining of the probes with 6E10 anti-beta-amyloid antibody in the PDAPP brain sections was described in the ex vivo assay using naïve rats.

[2] = molecular target: T1, beta-amyloid 1-42 oligomer (20% biotin) (Homo sapiens, UniProt P05067); test: Scintillation proximity assay (SPA), direct/saturation binding of tritium labeled probe to soluble oligomers
T1 construct: 12 μg beta-amyloid 1-42 oligomer (20% biotin); purchased Bachem H-5642; host or cells: synthetic peptide
T1 sequence (P05067 672-713 limits assumed): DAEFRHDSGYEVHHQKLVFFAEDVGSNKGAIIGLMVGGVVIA
Experimental: To prepare soluble oligomer, the film was dissolved in appropriate amount of dry DMSO (Sigma), and Ham's F12 media (Biosource) or PBS (Sigma, D8537) was added and incubated at 4° C. for 24 hours (final concentration of 200 uM or 0.9 mg/mL beta-amyloid in 2% DMSO). The tube containing the soluble oligomers was centrifuged at 13,000 rpm for 5 mins, and its supernatant was transferred to a clean tube.
For the saturation-binding assay, isotopic dilution of radiolabeled 49b with unlabeled 49b was performed. ^3H-49b was added to 500 uM of unlabeled 49b to a final concentration of 50 μCi/mL ^3H-49b. The probe solution was then serially diluted in PBS to give six solutions giving 6.6, 13.1, 26.3, 52.5, 105, or 210 uM in the final assay well. Each concentration of the probe solution was incubated with 12 μg beta-amyloid 1-42 oligomer (20% biotin) or 1-40 (20% biotin) fibrils in a total volume of 90 μl. Assays were incubated at room temp for 2 hrs before addition of 10 μL YSi-streptavidin (0.25 mg) SPA bead. Assays were set-up in triplicate in 96-well NBS plates (Costar). Assays were incubated overnight and counted the following morning. […] Assay conditions were the same as described in saturation binding assay.
A direct binding assay using tritium labeled 49b was performed against oligomers or fibrils by scintillation proximity assay (SPA). Beta-amyloid containing 20% biotin and tritiated 49b were incubated in solution for two hours prior to addition of the Ysi-Streptavidin beads.

[3] = molecular target: T2, beta-amyloid 1-40 (20% biotin) fibrils (Homo sapiens, UniProt P05067); test: Scintillation proximity assay (SPA), direct/saturation binding of tritium labeled probe to fibrils; conditions: immobilized fibrils, identical conditions
T2 construct: purchased Bachem H-1194; biotinylated H-5914; host or cells: synthetic peptide
T2 sequence (P05067 672-711 limits assumed): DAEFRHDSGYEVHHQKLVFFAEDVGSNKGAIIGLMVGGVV
Experimental: B. Insoluble A-beta (1-40) fibril formation: Lyophilized human beta-amyloid 1-40 peptide (Catalog number H-1194, Bachem) was solubilized with HFIP to produce a dry clear film following the process described above for beta-amyloid 1-42. The clear film of beta-amyloid 1-40 was diluted with distilled water to achieve a 6 mg/mL concentration. […] The clear solution was diluted to 1 mg/mL with PBS, pH 7.4 to obtain a final concentration of 1 mg/mL beta-amyloid 1-40, and then incubated at 37° C. on an orbital shaker at 200 RPM for 4 days. A cloudy solution was produced, and the fibril production was confirmed by measuring changes in fluorescence of Thioflavin T, as well as by atomic force microscopy and transmission electron microscopy. Fibrils were used immediately after their production was confirmed.
For SPA and atomic force microscopy (AFM) experiments, preparations of soluble oligomers and fibrils contained 20% biotinylated beta-amyloid 1-42 and 1-40, respectively (H-5642, H-5914, Bachem). […]
For the saturation-binding assay, isotopic dilution of radiolabeled 49b with unlabeled 49b was performed. ^3H-49b was added to 500 uM of unlabeled 49b to a final concentration of 50 μCi/mL ^3H-49b. […] Assays were incubated overnight and counted the following morning. […]

[4] = molecular target: T1, beta-amyloid 1-42 oligomer (20% biotin); test: SPA competition binding assay against 3H-49b on soluble oligomers; conditions: 50 uM unlabeled competitor, 130 nM 3H-49b
Experimental: Lyophilized Streptavidin-Ysi beads (GE Healthcare) were reconstituted to 100 mg/mL in deioniozed water, and then further diluted in deionized water to give a suspension containing 0.25 mg/10 μl water. Unlabeled 49b and other benzofuran probes were dissolved in DMSO to give a final stock concentration of 15 mM.
For the saturation-binding assay, isotopic dilution of radiolabeled 49b with unlabeled 49b was performed. ^3H-49b was added to 500 uM of unlabeled 49b to a final concentration of 50 μCi/mL ^3H-49b. The probe solution was then serially diluted in PBS to give six solutions giving 6.6, 13.1, 26.3, 52.5, 105, or 210 uM in the final assay well. Each concentration of the probe solution was incubated with 12 μg beta-amyloid 1-42 oligomer (20% biotin) or 1-40 (20% biotin) fibrils in a total volume of 90 μl. Assays were incubated at room temp for 2 hrs before addition of 10 μL YSi-streptavidin (0.25 mg) SPA bead. Assays were set-up in triplicate in 96-well NBS plates (Costar). Assays were incubated overnight and counted the following morning. […] The specific activities of the four probes were different, however the level of activity was the same at the concentrations where the probes were tested. For this assay, 130 nM of ^3H-49b, 90 nM ^3H-cimetidine, 14 nM ^3H-caffeine, and 6 nM ^3H-AZT were tested for direct binding to 12 ug of beta-amyloid-42 oligomer (20% biotin). Assay conditions were the same as described in saturation binding assay. […]
Data analyses were performed using Sigma Plot or GraphPad Prism® version 4. Curves were fitted using non-linear regression. KD values and IC50 values were estimated from the binding curves.
For the competition binding assay between tritium-labeled 49b and various unlabeled benzofuran analogs, assays contained 130 nM ^3H-49b and 50 uM of each of the unlabeled benzofuran analogs. As controls, 10 uM and 50 uM of unlabeled 49b were included in the assays.

Kd ([2]; SPA saturation binding of 3H-49b, isotopic dilution with unlabeled 49b): 50 µM
Bmax ([2]; SPA saturation binding, oligomers): 60-80 nmol/mg beta-amyloid
molar ratio probe : beta-amyloid ([2]; from Bmax, oligomers): 1 probe: 3-4 beta-amyloid
inhibition at 50 µM [4]: 61%
Compound: O=Cc1ccc(-c2oc3ccccc3c2CO)o1 [Compound 49b, 2-(2-formyl-5-furanyl)-3-hydroxymethyl benzofuran]
staining of brain sections ([1]; 24-month old PDAPP mice, 25 μM probe): punctuate staining pattern that co-localized with beta-amyloid immunoreactivity; also recorded: primarily found in the hippocampus and co-localized with Thioflavin S staining
staining of carbonate pre-treated brain sections ([1]; 24-month old PDAPP, carbonate extraction buffer to remove soluble material): did not stain
staining of brain sections ([1]; young (3-month old) PDAPP mice): No staining was observed
affinity to fibrils [3]: no measurable affinity; also recorded: No demonstrable affinity
